Results from patent US6358999B2, “Use of zinc tranexamate in the treatment of diabetes” (Hamari Chemicals, LTD, priority 2000, dated 2002).

Columns and labels:
[1] = Blood sugar and insulin levels in streptozocin-induced diabetic mice after sucrose loading; format: in vivo; conditions: STZ diabetic mice; for Blood sugar level: 200 mg/kg p.o. 30 minutes before sucrose 2 g/kg
Experimental: Experimental diabetes was induced in mice by treating the mice with streptozocin (STZ) (100 mg/kg/day i.p. for two days). After fasting for 17-24 hours, the mice were orally given Y-4 at varying doses 30 minutes before loading 2 g/kg of sucrose. After sucrose loading, blood samples were collected and assayed for blood sugar levels at different time intervals as in the preceding examples.
Similar to the above experiments, Y-4 was orally administered to the mice having experimental diabetes at a dose of 100 mg/kg 30 minutes before loading of 2 g of sucrose. Blood sugar and insulin levels in blood samples collected 30 minutes after sugar loading are shown in FIG. 1 and FIG. 2, respectively.

[2] = 1,200 mg/kg orally administered to mice; cited from earlier work
intestinal α-glucosidase [3] = assay: Inhibition of intestinal α-glucosidase activity of normal mouse (intestinal homogenate, glucose production); format: biochemical; conditions: for Glucose (glucose production from isomaltose): substrate isomaltose; for Glucose (glucose production from isomaltose) / Glucose (glucose production from maltose) / Glucose (glucose production from sucrose): 37° C., 30 minutes; for Glucose (glucose production from maltose): substrate maltose; for Glucose (glucose production from sucrose): substrate sucrose
Experimental: (§1) Intestinal tract enucleated from a normal mouse was homogenized by the conventional method after removing membrane mucosa. As a substrate, sucrose, starch, maltose or isomaltose was used. The homogenate was incubated with the substrate in the presence of a test compound (Y-4 or zinc chloride) at 37° C. for 30 minutes. The reaction mixture was centrifuged and the glucose concentration in the resulting supernatant was assayed. The glucose assay was conducted calorimetrically by adding a chromogenic reagent (0.47 mol/l of orthotoluidine, 16 mol/l of acetic acid, 10 mmol/l of boric acid) to the supernatant, heating the mixture in a boiling water bath for 8 minutes and measuring the absorbance at 635 nm. α-Glucosidase activity expressed in terms of glucose concentration/mg protein was calculated.

[4] = Suppressive effect on elevation of blood sugar level after glucose loading in mice; format: in vivo
Experimental: Each group consisting of five mice was fasted for 17-24 hours and then Y-4 was orally administered at varying doses. After 30 minutes, mice were given glucose orally at a dose of 1 g/kg body weight. Blood samples were collected from the tail end of mice at different time intervals and assayed for blood sugar levels using GLUTEST™ sensor available from Matsushita Kotobuki Electronic Industry Company.

[5] = Improvement of insulin resistance in Wistar fatty rats with type II diabetes (glucose loading after 8 weeks); format: in vivo; conditions: 150 mg/kg daily p.o. 8 weeks, after glucose 2.5 g/kg
Experimental: Y-4 was orally administered to male Wistar fatty rats (WFR) having tyep II diabetes with obesity and hyperlipidemia at an average daily dose of 150 mg/kg for consecutive 8 weeks. Eight weeks after the initiation of administration, the rats were fasted for 20 hours and then given oral administration of 2.5 g/kg/rat of glucose. Blood samples were collected from the tail vein at 30, 60, 120 and 180 minutes after the administration of glucose for assaying blood sugar and insulin levels. The results are shown in FIG. 3 and FIG. 4, respsectively.

[6] = Suppressive effect on elevation of blood sugar level after sucrose loading in mice; format: in vivo
Experimental: Each group consisting of five mice was fasted for 17-24 hours and then Y-4 was orally administered at varying doses.
Mice were orally given 1 g/kg body weight of sucrose 30 minutes after the administration of Y-4 or 2 g/kg body weight of sucrose 2 hours after the administration of Y-4. As in the preceding example, blood samples were collected from the tail end of mice at different time intervals and assayed for blood sugar levels.

intestinal α-glucosidase [7] = assay: Inhibition of intestinal α-glucosidase activity of streptozocin-induced diabetic mouse; format: biochemical; conditions: for Glucose (glucose production from maltose) / Glucose (glucose production from sucrose): diabetic mouse; for Glucose (glucose production from maltose): substrate maltose; for Glucose (glucose production from sucrose): substrate sucrose
Experimental: as §1
Example 5 was repeated using intestinal tract enucleated from a diabetic mouse induced by the treatment with streptozocin instead of intestinal tract enucleated from a normal mouse to determine the inhibitory effect of Y-4 on α-glycosidase activity. The intestinal α-glucosidase activity was higher in streptozocin-induced diabetic mouse than in normal mouse. […] The inhibitory effect of Y-4 was more remarkable in the diabetic mouse than in normal mouse.

[8] = 100 mg/kg p.o. 30 minutes before sucrose, 30 minutes after sugar loading

NC[C@H]1CC[C@H](C(=O)[O-])CC1.NC[C@H]1CC[C@H](C(=O)[O-])CC1.O.[Zn+2] [Y-4, zinc tranexamate monohydrate]
Blood sugar level (FIG. 1) [1, 8]: suppressed the elevation of blood sugar level almost completely
Insulin level (FIG. 2) [1, 8]: not significantly different from the control value of normal mice group
Blood sugar level ([1]; 20 min.): 96.8 mg/dL
Blood sugar level ([1]; 40 min.): 134.2 mg/dL
Blood sugar level ([1]; 60 min.): 138.2 mg/dL
Blood sugar level ([1]; 90 min.): 137.0 mg/dL
Blood sugar level ([1]; 180 min.): 131.8 mg/dL
Elevation of blood sugar level after sucrose loading in diabetic mice ([1]; 30 minutes before sucrose loading, up to 3 hours): remarkably suppressed the elevation of blood sugar level
Acute toxicity (death) [2]: no death
Glucose (glucose production from isomaltose) (intestinal α-glucosidase [3]; inhibitor 5 mM): 5.009 ± 0.387 mg/mg protein
Glucose (glucose production from isomaltose) (intestinal α-glucosidase [3]; inhibitor 10 mM): 4.150 ± 0.351 mg/mg protein
Glucose (glucose production from isomaltose) (intestinal α-glucosidase [3]; inhibitor 30 mM): 3.473 ± 0.520 mg/mg protein
Glucose (glucose production from isomaltose) (intestinal α-glucosidase [3]; inhibitor 50 mM): 3.158 ± 0.206 mg/mg protein
Glucose (glucose production from maltose) (intestinal α-glucosidase [3]; inhibitor 5 mM): 17.956 ± 0.423 mg/mg protein
Glucose (glucose production from maltose) (intestinal α-glucosidase [3]; inhibitor 10 mM): 14.810 ± 0.956 mg/mg protein
Glucose (glucose production from maltose) (intestinal α-glucosidase [3]; inhibitor 30 mM): 10.963 ± 0.399 mg/mg protein
Glucose (glucose production from maltose) (intestinal α-glucosidase [3]; inhibitor 50 mM): 5.353 ± 0.017 mg/mg protein
Glucose (glucose production from sucrose) (intestinal α-glucosidase [3]; inhibitor 5 mM): 4.078 ± 0.073 mg/mg protein
Glucose (glucose production from sucrose) (intestinal α-glucosidase [3]; inhibitor 10 mM): 1.682 ± 0.097 mg/mg protein
Glucose (glucose production from sucrose) (intestinal α-glucosidase [3]; inhibitor 30 mM): 0.726 ± 0.157 mg/mg protein
Glucose (glucose production from sucrose) (intestinal α-glucosidase [3]; inhibitor 50 mM): 0.436 ± 0.036 mg/mg protein
α-Glucosidase activity, all substrates (intestinal α-glucosidase [3]; sucrose, starch, maltose, isomaltose, concentration higher than 5 mM): inhibited α-glucosidase activity in the reaction with all substrates
Blood sugar level ([4]; 50 mg/kg p.o. 30 min before glucose 1 g/kg, 20 min.): 96.0 ± 3.5 mg/dL
Blood sugar level ([4]; 50 mg/kg p.o. 30 min before glucose 1 g/kg, 40 min.): 104.8 ± 7.1 mg/dL
Blood sugar level ([4]; 50 mg/kg p.o. 30 min before glucose 1 g/kg, 60 min.): 99.0 ± 14.0 mg/dL
Blood sugar level ([4]; 50 mg/kg p.o. 30 min before glucose 1 g/kg, 120 min.): 78.4 ± 6.4 mg/dL
Blood sugar level ([4]; 50 mg/kg p.o. 30 min before glucose 1 g/kg, 180 min.): 58.4 ± 6.0 mg/dL
Blood sugar level ([4]; 100 mg/kg p.o. 30 min before glucose 1 g/kg, 20 min.): 89.0 ± 2.9 mg/dL
Blood sugar level ([4]; 100 mg/kg p.o. 30 min before glucose 1 g/kg, 40 min.): 112.6 ± 5.0 mg/dL
Blood sugar level ([4]; 100 mg/kg p.o. 30 min before glucose 1 g/kg, 60 min.): 97.6 ± 0.9 mg/dL
Blood sugar level ([4]; 100 mg/kg p.o. 30 min before glucose 1 g/kg, 120 min.): 73.1 ± 2.5 mg/dL
Blood sugar level ([4]; 100 mg/kg p.o. 30 min before glucose 1 g/kg, 180 min.): 52.1 ± 1.9 mg/dL
Blood sugar level ([4]; 200 mg/kg p.o. 30 min before glucose 1 g/kg, 20 min.): 83.0 ± 4.1 mg/dL
Blood sugar level ([4]; 200 mg/kg p.o. 30 min before glucose 1 g/kg, 40 min.): 95.2 ± 3.6 mg/dL
Blood sugar level ([4]; 200 mg/kg p.o. 30 min before glucose 1 g/kg, 60 min.): 84.4 ± 2.8 mg/dL
Blood sugar level ([4]; 200 mg/kg p.o. 30 min before glucose 1 g/kg, 120 min.): 66.2 ± 3.3 mg/dL
Blood sugar level ([4]; 200 mg/kg p.o. 30 min before glucose 1 g/kg, 180 min.): 53.9 ± 2.1 mg/dL
Elevation of blood sugar level after glucose loading ([4]; varying oral doses 30 minutes before glucose 1 g/kg): suppressed elevation of blood sugar level
Blood sugar level (FIG. 3) [5]: significantly controlled
Insulin level (FIG. 4) [5]: normalized
Blood sugar level ([6]; 50 mg/kg p.o. 30 minutes before sucrose 1 g/kg, 20 min.): 71.0 ± 5.9 mg/dL
Blood sugar level ([6]; 50 mg/kg p.o. 30 minutes before sucrose 1 g/kg, 40 min.): 90.8 ± 10.0 mg/dL
Blood sugar level ([6]; 50 mg/kg p.o. 30 minutes before sucrose 1 g/kg, 60 min.): 76.6 ± 9.9 mg/dL
Blood sugar level ([6]; 50 mg/kg p.o. 30 minutes before sucrose 1 g/kg, 90 min.): 68.0 ± 8.1 mg/dL
Elevation of blood sugar level after sucrose loading ([6]; 100 mg/kg and 200 mg/kg 30 minutes before sucrose loading, up to 90 minutes): significant suppressive effect
Blood sugar level ([6]; 100 mg/kg p.o. 30 minutes before sucrose 1 g/kg, 20 min.): 50.8 ± 2.4 mg/dL
Blood sugar level ([6]; 100 mg/kg p.o. 30 minutes before sucrose 1 g/kg, 40 min.): 59.3 ± 2.4 mg/dL
Blood sugar level ([6]; 100 mg/kg p.o. 30 minutes before sucrose 1 g/kg, 60 min.): 72.9 ± 2.6 mg/dL
Blood sugar level ([6]; 100 mg/kg p.o. 30 minutes before sucrose 1 g/kg, 90 min.): 60.6 ± 2.3 mg/dL
Blood sugar level ([6]; 200 mg/kg p.o. 30 minutes before sucrose 1 g/kg, 20 min.): 40.4 ± 0.4 mg/dL
Blood sugar level ([6]; 200 mg/kg p.o. 30 minutes before sucrose 1 g/kg, 40 min.): 53.2 ± 7.5 mg/dL
Blood sugar level ([6]; 200 mg/kg p.o. 30 minutes before sucrose 1 g/kg, 60 min.): 58.2 ± 8.7 mg/dL
Blood sugar level ([6]; 200 mg/kg p.o. 30 minutes before sucrose 1 g/kg, 90 min.): 57.6 ± 3.2 mg/dL
Blood sugar level ([6]; 200 mg/kg p.o. 2 hours before sucrose 2 g/kg, 20 min.): 66.2 ± 6.3 mg/dL
Blood sugar level ([6]; 200 mg/kg p.o. 2 hours before sucrose 2 g/kg, 40 min.): 84.6 ± 8.9 mg/dL
Blood sugar level ([6]; 200 mg/kg p.o. 2 hours before sucrose 2 g/kg, 60 min.): 94.0 ± 18.0 mg/dL
Blood sugar level ([6]; 200 mg/kg p.o. 2 hours before sucrose 2 g/kg, 90 min.): 94.4 ± 17.2 mg/dL
Glucose (glucose production from maltose) (intestinal α-glucosidase [7]; inhibitor 5 mM): 23.060 ± 1.129 mg/mg protein
Glucose (glucose production from maltose) (intestinal α-glucosidase [7]; inhibitor 10 mM): 18.569 ± 1.617 mg/mg protein
Glucose (glucose production from maltose) (intestinal α-glucosidase [7]; inhibitor 30 mM): 15.113 ± 0.093 mg/mg protein
Glucose (glucose production from maltose) (intestinal α-glucosidase [7]; inhibitor 50 mM): 12.793 ± 0.337 mg/mg protein
Glucose (glucose production from sucrose) (intestinal α-glucosidase [7]; inhibitor 5 mM): 10.128 ± 1.137 mg/mg protein
Glucose (glucose production from sucrose) (intestinal α-glucosidase [7]; inhibitor 10 mM): 5.312 ± 1.113 mg/mg protein
Glucose (glucose production from sucrose) (intestinal α-glucosidase [7]; inhibitor 30 mM): 3.146 ± 0.157 mg/mg protein
Glucose (glucose production from sucrose) (intestinal α-glucosidase [7]; inhibitor 50 mM): 2.251 ± 0.327 mg/mg protein
Inhibition of intestinal α-glucosidase, all substrates (intestinal α-glucosidase [7]; streptozocin-induced diabetic mouse): remarkably inhibited
